Data set [1] concerns p21. Kind of data set: Immunoblotting of p21. The settings on record: low micromolar concentrations. It is filed as cell-based. An excerpt: (§1) A) Effect of increasing concentrations of clioquinol on LP1 and MY5 multiple myeloma cells at twenty hours after clioquinol treatment; determined by SDS-PAGE immunoblotting. B) Effect of increasing concentrations of clioquinol on the G0/G1 ratio in AML3, U937, LP1 and MY5 cells at twenty hours after clioquinol treatment; determined by PI staining and flow cytometry. To prepare cytosolic extracts, NIH3T3 cells and myeloma cells were washed with phosphate-buffered saline (PBS, pH 7.4) and suspending in lysis buffer [10 mM Tris (pH 7.4), 150 mM NaCl, 0.1% Triton X-100, 0.5% sodium deoxycholate, and 5 mM EDTA] containing protease inhibitors (Complete tablets, Roche, Indianapolis, Ind.). Protein concentrations were determined by the Bradford assay. Immunoblot assays were performed by subjecting equal amounts of protein to SDS-PAGE gels followed by transfer to Nitrocellulose membranes. Membranes were probed with polyclonal rabbit anti-human cyclin D2 (0.5 μg/ml, both from Santa Cruz Biotech, Santa Cruz, Calif.), or monoclonal mouse-anti human p21 (1:200 v/v, Santa Cruz Biotech), monoclonal mouse-anti human p27 (1:2,500 v/v BD Transduction Laboratories), polyclonal mouse-anti human ubiquitin (1:2,000 v/v Calbiochem) and monoclonal mouse-anti-β-actin (1:10,000 v/v) (Sigma, St. Lois, Mo.). […] Detection was performed by the Enhanced Chemical Luminescence (ECL) method (Pierce, Rockford, Ill.).

For data set [2], the system named is p27. Kind of data set: Immunoblotting of p27. Particulars: low micromolar concentrations. The format is cell-based.
From the text: as §1

The test system of data set [3] is ubiquitinated proteins. Kind of data set: Immunoblotting of ubiquitinated proteins. It is filed as cell-based. Particulars: leukemia and myeloma cells. On the procedure:
Effect of increasing concentrations of clioquinol on LP1 and MY5 multiple myeloma cells at twenty hours after clioquinol treatment; determined by SDS-PAGE immunoblotting. To prepare cytosolic extracts, NIH3T3 cells and myeloma cells were washed with phosphate-buffered saline (PBS, pH 7.4) and suspending in lysis buffer [10 mM Tris (pH 7.4), 150 mM NaCl, 0.1% Triton X-100, 0.5% sodium deoxycholate, and 5 mM EDTA] containing protease inhibitors (Complete tablets, Roche, Indianapolis, Ind.). Protein concentrations were determined by the Bradford assay. Immunoblot assays were performed by subjecting equal amounts of protein to SDS-PAGE gels followed by transfer to Nitrocellulose membranes. Membranes were probed with polyclonal rabbit anti-human cyclin D2 (0.5 μg/ml, both from Santa Cruz Biotech, Santa Cruz, Calif.), or monoclonal mouse-anti human p21 (1:200 v/v, Santa Cruz Biotech), monoclonal mouse-anti human p27 (1:2,500 v/v BD Transduction Laboratories), polyclonal mouse-anti human ubiquitin (1:2,000 v/v Calbiochem) and monoclonal mouse-anti-β-actin (1:10,000 v/v) (Sigma, St. Lois, Mo.). Secondary antibodies (Amersham Bioscience UK, Little Chalfont, England) were horseradish peroxidase (HRP)-conjugated goat anti-mouse IgG (1:10,000 v/v) and anti-rabbit (1:5,000 v/v). Detection was performed by the Enhanced Chemical Luminescence (ECL) method (Pierce, Rockford, Ill.).

The test system of data set [4] is proteasome in normal hematopoietic cells. Briefly: Proteasome activity in normal hematopoietic cells (PBSC). It is filed as cell-based, human. On the procedure: Proteasome activity of primary acute myeloid leukemia (AML) blasts or normal peripheral blood stem cells (PBSC) after twenty hours of treatment with clioquinol (CQ), or an equimolar concentration of […] and CuCl2 (Cu). After treatment, the preferential chymotrypsin-like substrate Suc-LLVY-AMC was added and the rate of free AMC was measured over time with a florescent spectrophotometric plate reader (excitation=380 nm, emission=460 nm). Cellular proteins were extracted from cells with lysis buffer (50 mM HEPES pH 7.5, 150 mM NaCl, 2 mM ATP, and 1% Triton X-100). The chymotrypsin-like activity of the proteasome was measured by incubating equal amounts of protein with the preferential chymotrypsin-like substrate Suc-LLVY-AMC in assay buffer (50 mM Tris-HCl, pH 7.5, 150 mM NaCl) for two hours. After incubation, […] and the rate of free AMC was measured over time with a florescent spectrophotometric plate reader (excitation=380 nm, emission=460 nm). The inventors examined the effect of clioquinol and copper on primary AML cells and normal hematopoietic cells. Primary AML were obtained from the peripheral blood of patients with AML. Normal hematopoietic stem cells (PBSC) were obtained from the peripheral blood of volunteers donating stem cells for allotransplant. […] After incubation, cell lysates were prepared and the enzymatic activity of the proteasome measured as above.

Data set [5] has as its system primary AML patient samples. Kind of data set: Cell viability (MTS assay), primary AML patient samples. The format is cell-based, human. On the procedure:
Cell viability of leukemia, myeloma, solid tumor and primary cells forty-eight hours after clioquinol treatment by MTS assay. Cell viability was assessed with the CellTiter96® Aqueous Non-Radioactive Assay kit according to manufactures' instructions (Promega). Apoptosis was measured by flow cytometry to detect cell surface Annexin V expression and propidium iodide (PI) uptake (Biovision, Mountain View, Calif., USA) as previously described (20) The inventors tested the effects of clioquinol on the viability of acute leukemia (n=7), myeloma (n=14), and solid tumor (n=5) cell lines as well as primary AML samples (n=6) and primary normal hematopoietic cells (n=3). Forty-eight hours after incubation, clioquinol induced cell death in 6/7 AML, 12/14 myeloma, 0/5 solid tumor, […] and 0/3 normal hematopoietic cells with an IC50 <20 μM (FIG. 5). Of note, after oral administration of clioquinol, trough serum concentrations of 20 μM can be achieved in patients (32).

Data set [6] relates to MY5 cells. Briefly: Apoptosis by Annexin V and PI staining and flow cytometry. The format is cell-based. On the procedure:
(TM) (20 μM). Apoptosis was measured by Annexin V and PI staining and flow cytometry. Cell viability was assessed with the CellTiter96® Aqueous Non-Radioactive Assay kit according to manufactures' instructions (Promega). Apoptosis was measured by flow cytometry to detect cell surface Annexin V expression and propidium iodide (PI) uptake (Biovision, Mountain View, Calif., USA) as previously described (20)

For data set [7] the following is noted: patients, after oral administration; cited from earlier work.

“Also recorded” adds a separate entry of the source.

As for `Oc1c(I)cc(Cl)c2cccnc12` [clioquinol, 5-chloro-7-iodo-8-hydroxyquinoline], the “expression of p21” value in data set [1] is “increased expression”. In addition, the “expression of p27” value in data set [2] is “increased expression”. Besides, the “amount of ubiquitinated protein” value in data set [3] is “increased the amount of ubiquitinated protein”. Moreover, the “enzymatic activity of the proteasome” value in data set [4] was “no effect; also recorded: no proteasomal inhibition was detected”. Further, in data set [5] (Homo sapiens, 6/7 primary AML patient samples, forty-eight hours, read-out: IC50 (cell death)), the IC50 is below 20 µM. For the same molecule, the potency of clioquinol entry in data set [5] (primary AML cells supplemented with copper) is recorded as “increased the potency of clioquinol”. The clioquinol-induced cell death result in data set [6] (copper supplemented in the medium (CuCl2 20 μM)) was “enhanced the toxicity of clioquinol”; in data set [6] (with copper chelator tetrathiomoylbdate (20 μM)) it was “abrogated clioquinol-induced cell death”. For the same molecule, in data set [6] (twenty-four hours), the “viability of MY5 cells” value is “reduces the viability of MY5 cells”. The trough serum concentrations in data set [7] was 20 µM.

These data come from patent publication US20110123617A1, “CLIOQUINOL FOR THE TREATMENT OF HEMATOLOGICAL MALIGNANCIES” (priority 2007, published 2011).
